Here are results for one molecule from patent US10934346B2, “Modified T cell comprising a polynucleotide encoding an inducible stimulating molecule comprising MyD88, CD40 and FKBP12” (priority 2014, dated 2021).

For data set [1] the following is noted: cited from earlier work.
A further data set relates to iMC-expressing T cells. Kind of data set: Survival and growth of iMC-transduced T cells with weekly rimiducid, with or without IL-2. Format: cell-based, human. How it is done: FIGS. 8A-8C provide assay results of iMC signaling in primary T cells induces cell survival in the absence of IL-2. FIG. 8A and FIG. 8B) FKBP and iMC transduced T cells were cultured in media supplemented with or without 100 U/ml IL-2 and stimulated on a weekly basis with 10 nM rimiducid (CID) and measured for growth by cell counting. FIG. 8C) iMC-modified T cells cultured in media without IL-2, with and without CID stimulation, were measured for viability by flow cytometry (SSC, FSC) after 42 days in culture. * indicates p-value <0.05.
The phosphorylation of key downstream signaling molecules, including JNK, Akt, RelA, ERK and p38 MAPK was measured in the induced iMC T cells.

The test system of the next data set is cells. Kind of data set: Amount of AP1903 needed in vitro for effective signaling of cells. Format: cell-based. How it is done: The fixed dose of AP1903 for injection used, for example, may be 0.4 mg/kg intravenously infused over 2 hours. The amount of AP1903 needed in vitro for effective signaling of cells is about 10-100 nM (MW: 1412 Da). This equates to 14-140 μg/L or ˜0.014-0.14 mg/kg ([…]). The dosage may vary according to the application, and may, in certain examples, be more in the range of 0.1-10 nM, or in the range of 50-150 nM, 10-200 nM, 75-125 nM, 100-500 nM, 100-600 nM, 100-700 nM, 100-800 nM, or 100-900 nM. Doses up to 1 mg/kg were well-tolerated in the Phase I study of AP1903 described above.

For another data set, the system named is B16-F10 melanoma cells. Kind of data set: IL-6 ELISA of adenovirus-transduced B16-F10 melanoma cells with AP1903. Format: cell-based. How it is done:
Adenoviruses were added at 1000, 2000, 4000, 8000 and 16000 virus/cell ratio and cells were incubated for 24 hours. Then, 100 nM of AP1903 was added to all the wells, and the following day the cells and culture supernatants were harvested. A. Cells were labeled with anti-human PSMA antibody, LNI-17, (Biolegend, San Diego, Calif.) and PSMA expression was analyzed by flow cytometry. Represented is the percentage of PSMA^+ cells when compared to non-transduced cells. B. IL-6 was evaluated from the culture supernatants by ELISA (e-Bioscience, San Diego, Calif.). FIG. 28 provides the results of the assay at a different multiplicity of infection and plating concentration. B16 melanomas were cultured at 50,000 cells/ml/well in 24-well plates. Adenoviruses were added at 6000, 12000, 18000, 24000 and 30000 virus/cell ratio and cells were incubated for 24 hours. Then, 100 nM of AP1903 was added to all the wells, and the following day the cells and culture supernatants were harvested. A. Cells were labeled with anti-human PSMA antibody, LNI-17, (Biolegend, San Diego, Calif.) and PSMA expression was analyzed by flow cytometry. Represented is the percentage of PSMA^+ cells when compared to non-transduced cells. B. IL-6 was evaluated from the culture supernatants by ELISA (e-Bioscience, San Diego, Calif.). […] IL-6 was evaluated from the culture supernatants by ELISA (e-Bioscience, San Diego, Calif.)
(In general: ELISA stands for enzyme-linked immunosorbent assay.)

Data set [2] relates to JNK, Akt, RelA, ERK and p38 MAPK. Briefly: Phosphorylation of downstream signaling molecules (Milliplex MAP assay, immunoblotting). The class given is cell-based, human. The note with it: 10 nM rimiducid, iMC T cells. How it is done: Immunoblotting. Primary human T cells transduced with either SFG-FKBP-2A-ΔCD19 or SFG-iMC-2A-ΔCD19 (4×10^6 per point) were cultured for the indicated time points in a 37° C. water bath with either 10 nM rimiducid, 250 nM each PMA and ionomycin, or media alone. Media as removed by aspiration after centrifugation at 6000 rpm for 2 min at 4° C. Cytoplasmic extracts were prepared by lysis in 100 μl radioimmuno-precipitation assay buffer (50 mM Tris, 150 mM NaCl, 1% NP40, 2 mM EDTA, 0.1% SDS, 0.25% sodium deoxycholate) containing 1×MS-SAFE (Roche). Lysates were incubated on ice for 10 min and cytoplasmic fractions were cleared by centrifugation at 11,000 rpm for 20 min at 4° C. […] Bound Abs were detected by HRP-conjugated goat-anti-rabbit IgG Ab (Pierce), followed by ECL (Pierce) and detection on a Gel Logic imaging system (Carestream). […]
Phosphorylated epitopes were detected in Assay Buffer 2 (MILLIPLEX MAP kit) with antibodies specific for p-RelA(S536), p-Akt(S473), p-p38(T180/Y182), p-JNK(T183/Y185), p-ERK1/2(T202/Y204) (custom MILLIPLEX Magnetic Bead MAPMATE kit; Millipore) or GAPDH as a control for total protein content. Fold increase in phosphorylation was calculated by net MFI of rimiducid treatment at a given time point divided by the net MFI of the corresponding non-stimulated time point. […]
In general terms: Immunoblotting shows a protein as a band on a membrane.

Each structure is given as a SMILES string. Read-outs that look alike come from different tables or passages of the source. Some results are limits rather than exact numbers.

For the molecule `CC[C@H](C(=O)N1CCCC[C@H]1C(=O)O[C@H](CCc1ccc(OC)c(OC)c1)c1cccc(OCC(=O)NCCNC(=O)COc2cccc([C@@H](CCc3ccc(OC)c(OC)c3)OC(=O)[C@@H]3CCCCN3C(=O)[C@@H](CC)c3cc(OC)c(OC)c(OC)c3)c2)c1)c1cc(OC)c(OC)c(OC)c1` (relative stereo) [rimiducid, 2-Piperidinecarboxylic acid, 1-[(2S)-1-oxo-2-(3,4,5-trimethoxyphenyl)butyl]-, 1,2-ethanediylbis [imino(2-oxo-2,1-ethanediyl)oxy-3,1-phenylene[(1R)-3-(3,4-Dimethoxyphenyl)propylidene]] ester, [2S-[1(R*),2R*[S*[S*[1(R*),2R*]]]]]-(9Cl)], the “plasma levels versus dose” value in data set [1] (0.01, 0.05, 0.1, 0.5 and 1.0 mg/kg) is recorded as “directly proportional to dose”. The “plasma level as % of maximal concentration” value is “approximately 18%” in data set [1] (0.5 hours post-dose), around 7% in data set [1] (2 hours post-dose) and around 1% in data set [1] (10 hours post-dose). In addition, in data set [1] (Phase I study), the well-tolerated doses result is given as “up to 1 mg/kg”. In addition, the “mean Cmax” value in data set [1] (plasma, over the 0.01-1.0 mg/kg dose range, infused IV over 2 hours) was 10 to 1275 ng/mL. The T cell proliferation entry in the data set with iMC-expressing T cells (IL-2 withdrawn) is recorded as “no proliferation was observed”. Also, the “T cell survival and expansion” value in the data set with iMC-expressing T cells (in the presence of exogenous IL-2) is “increased T cell survival and cell expansion”. Besides, the “amount needed in vitro for effective signaling of cells” value in the data set on cells lay in the range of 10 to 100 nM. For the same molecule, in the data set on cells (MW: 1412 Da), the “amount needed for effective signaling, converted” value is 14 to 140 µg/L. The IL-6 production entry in the data set on B16-F10 melanoma cells (100 nM AP1903) is “response to AP1903 by producing IL-6”. Further, the “IL-6 production without ligand” value in the data set with B16-F10 melanoma cells (presence and absence of AP1903) was “transduced cells produce IL-6 without the addition of AP1903”. In data set [2], the “onset of signaling after exposure” value was at most 15 min. Moreover, in data set [2], the “phosphorylation of signaling pathways” value was “each of these signaling pathways show increased phosphorylation in T cells, with MAPK and JNK showing the greatest rimiducid-dependent activation”.
